Several values for one entry are separate records, joined by “and”; a condition that tells them apart may be missing. Identical values can stand only once. Numbers after ± are expanded uncertainties.
Legend:
[1] = activity coefficient (dimensionless); of the first substance listed, at infinite dilution; xn = mol fraction of the nth substance listed; conditions: 101.3 kPa, Liquid, x1 = 0
[2] = 101.33 kPa, Liquid, Vibrating tube method
[3] = 313 K, Open tubular Wall-Coated Column Chromatography
[4] = 333 K, Open tubular Wall-Coated Column Chromatography
[5] = 353 K, Open tubular Wall-Coated Column Chromatography
[6] = 373 K, Open tubular Wall-Coated Column Chromatography
[7] = 393 K, Open tubular Wall-Coated Column Chromatography
[8] = 333 K, open tubular wall-coated column chromatography
[9] = 353 K, open tubular wall-coated column chromatography
[10] = 373 K, open tubular wall-coated column chromatography
[11] = 393 K, open tubular wall-coated column chromatography
[12] = 403 K, open tubular wall-coated column chromatography
[13] = 413 K, open tubular wall-coated column chromatography
[14] = 413 K, Open tubular Wall-Coated Column Chromatography
[15] = 383 K, open tubular wall-coated column chromatography
[16] = 313 K, open tubular wall-coated column chromatography

Work on `COCCOC` [1,2-dimethoxyethane] + CC(=O)[O-].CCn1cc[n+](C)c1 yielded an activity coefficient [1, 3] of 3.56 ± 0.36, an activity coefficient [1, 4] of 3.88 ± 0.39 and an activity coefficient [1, 5] of 4.11 ± 0.41. The activity coefficient [1, 6] was 4.51 ± 0.45 and the activity coefficient [1, 7] was 4.81 ± 0.48.

For `C1COCCO1` [1,4-dioxane] + CC(=O)[O-].CCn1cc[n+](C)c1, the activity coefficient [1, 8] was 2.29 ± 0.23, the activity coefficient [1, 9] was 2.28 ± 0.23 and the activity coefficient ([1]; 373 K, Chromatography) was 2.56 and 2.43. For the same molecule, the activity coefficient [1, 10] was 2.39 ± 0.24, the activity coefficient ([1]; 393 K, Chromatography) was 2.63 and 2.32 and the activity coefficient [1, 11] was 2.52 ± 0.25. The activity coefficient ([1]; 403 K, Chromatography) was 2.75 and 2.44, the activity coefficient [1, 12] was 2.67 ± 0.27 and the activity coefficient ([1]; 413 K, Chromatography) was 2.77 and 2.46. It also gave an activity coefficient [1, 13] of 2.58 ± 0.26.

With `CC(=O)[O-].CCn1cc[n+](C)c1` [1-ethyl-3-methylimidazolium acetate] the mass density ([2]; 293.15 K) was 1100.87 ± 0.31 kg/m3, the mass density ([2]; 298.15 K) was 1097.83 ± 0.31 kg/m3 and the mass density ([2]; 303.15 K) was 1094.77 ± 0.31 kg/m3. The mass density ([2]; 308.15 K) was 1091.71 ± 0.3 kg/m3, the mass density ([2]; 313.15 K) was 1088.65 ± 0.3 kg/m3 and the mass density ([2]; 318.15 K) was 1085.61 ± 0.3 kg/m3. It also gave a mass density ([2]; 323.15 K) of 1082.57 ± 0.3 kg/m3, a mass density ([2]; 328.15 K) of 1079.55 ± 0.29 kg/m3 and a mass density ([2]; 333.15 K) of 1076.54 ± 0.29 kg/m3. It also gave a mass density ([2]; 338.15 K) of 1073.54 ± 0.29 kg/m3, a mass density ([2]; 343.15 K) of 1070.55 ± 0.29 kg/m3 and a mass density ([2]; 348.15 K) of 1067.58 ± 0.28 kg/m3. For the same molecule, the mass density ([2]; 353.15 K) was 1064.61 ± 0.28 kg/m3 and the mass density ([2]; 358.15 K) was 1061.65 ± 0.28 kg/m3.

Work on `CCC(C)(C)O` [2-methylbutan-2-ol] + CC(=O)[O-].CCn1cc[n+](C)c1 yielded an activity coefficient [1, 5] of 0.29 ± 0.03, an activity coefficient [1, 6] of 0.35 ± 0.04 and an activity coefficient [1, 7] of 0.42 ± 0.04. The activity coefficient [1, 14] was 0.49 ± 0.05.

Work on `CC(C)(C)O` [2-methylpropan-2-ol] + CC(=O)[O-].CCn1cc[n+](C)c1 yielded an activity coefficient [1, 3] of 0.16 ± 0.02, an activity coefficient [1, 4] of 0.18 ± 0.02 and an activity coefficient [1, 5] of 0.22 ± 0.02. It also gave an activity coefficient [1, 6] of 0.27 ± 0.03, an activity coefficient [1, 7] of 0.3 ± 0.03 and an activity coefficient [1, 14] of 0.37 ± 0.04.

In the case of `CC#N` [acetonitrile] + CC(=O)[O-].CCn1cc[n+](C)c1, the activity coefficient [1, 8] is reported as 0.76 ± 0.08, the activity coefficient [1, 9] is reported as 0.77 ± 0.08 and the activity coefficient ([1]; 373 K, Chromatography) is reported as 0.82 ± 0.05. The activity coefficient [1, 10] was 0.86 ± 0.09, the activity coefficient ([1]; 383 K, Chromatography) was 0.85 and 0.88 and the activity coefficient [1, 15] was 0.91 ± 0.09. For the same molecule, the activity coefficient ([1]; 393 K, Chromatography) was 0.87 ± 0.06, the activity coefficient [1, 11] was 0.89 ± 0.09 and the activity coefficient [1, 12] was 1.21 ± 0.14.

For `c1ccccc1` [benzene] + CC(=O)[O-].CCn1cc[n+](C)c1, the activity coefficient [1, 16] was 2.8 ± 0.28, the activity coefficient [1, 8] was 3.06 ± 0.31 and the activity coefficient ([1]; 353 K, Chromatography) was 3.41 and 3.39. For the same molecule, the activity coefficient [1, 9] was 3.43 ± 0.34, the activity coefficient ([1]; 373 K, Chromatography) was 3.45 and 3.31 and the activity coefficient [1, 10] was 3.44 ± 0.34. The activity coefficient ([1]; 383 K, Chromatography) was 3.49 and 3.62, the activity coefficient [1, 15] was 3.49 ± 0.35 and the activity coefficient ([1]; 393 K, Chromatography) was 3.52 and 3.45. The activity coefficient [1, 11] was 3.68 ± 0.37, the activity coefficient ([1]; 403 K, Chromatography) was 4.15 and 3.67 and the activity coefficient [1, 12] was 3.91 ± 0.4. For the same molecule, the activity coefficient ([1]; 413 K, Chromatography) was 4.1 and 4.11 and the activity coefficient [1, 13] was 4.28 ± 0.43.

In the case of `C1CCCCC1` [cyclohexane] + CC(=O)[O-].CCn1cc[n+](C)c1, the activity coefficient ([1]; 313 K, Chromatography) is reported as 36.2 and 35.5, the activity coefficient [1, 16] is reported as 31.8 ± 3.2 and the activity coefficient ([1]; 333 K, Chromatography) is reported as 30.9 and 31.6. The activity coefficient [1, 8] was 31.5 ± 3.2, the activity coefficient ([1]; 353 K, Chromatography) was 27.3 and 29.1 and the activity coefficient [1, 9] was 32.8 ± 3.3. The activity coefficient ([1]; 373 K, Chromatography) was 27.4 and 29.3, the activity coefficient ([1]; 383 K, Chromatography) was 26.9 and 25.6 and the activity coefficient ([1]; 393 K, Chromatography) was 26.5 and 28.9. For the same molecule, the activity coefficient [1, 11] was 30.3 ± 3 and the activity coefficient ([1]; 413 K, Chromatography) was 24.8 and 24.3.

For `CCOC(C)=O` [ethyl acetate] + CC(=O)[O-].CCn1cc[n+](C)c1, the activity coefficient [1, 16] was 4.41 ± 0.44, the activity coefficient ([1]; 333 K, Chromatography) was 5.41 and 4.67 and the activity coefficient [1, 8] was 4.77 ± 0.48. The activity coefficient ([1]; 353 K, Chromatography) was 5.48 and 4.72, the activity coefficient [1, 9] was 5.24 ± 0.53 and the activity coefficient ([1]; 373 K, Chromatography) was 5.24 and 4.67. For the same molecule, the activity coefficient [1, 10] was 5.62 ± 0.56, the activity coefficient ([1]; 393 K, Chromatography) was 5.29 and 4.76 and the activity coefficient [1, 11] was 5.35 ± 0.54. For the same molecule, the activity coefficient ([1]; 403 K, Chromatography) was 5.47 and 5.05, the activity coefficient [1, 12] was 5.32 ± 0.53 and the activity coefficient ([1]; 413 K, Chromatography) was 5.44 and 5.11.

For `CCCCCCC` [heptane] + CC(=O)[O-].CCn1cc[n+](C)c1, the activity coefficient [1, 3] was 121 ± 12, the activity coefficient [1, 4] was 146 ± 15 and the activity coefficient [1, 5] was 157 ± 16. For the same molecule, the activity coefficient [1, 6] was 173 ± 17.

In the case of `C=CCCCC` [hex-1-ene] + CC(=O)[O-].CCn1cc[n+](C)c1, the activity coefficient ([1]; 313 K, Chromatography) is reported as 37.8 and 39, the activity coefficient [1, 16] is reported as 36 ± 3.6 and the activity coefficient ([1]; 333 K, Chromatography) is reported as 34.7 and 35.5. For the same molecule, the activity coefficient [1, 8] was 35.1 ± 3.5, the activity coefficient ([1]; 353 K, Chromatography) was 31.3 and 34.8 and the activity coefficient ([1]; 373 K, Chromatography) was 31 and 33.4. The activity coefficient ([1]; 393 K, Chromatography) was 30.6 and 30.1 and the activity coefficient ([1]; 413 K, Chromatography) was 25 and 27.

For `CCCCCC` [hexane] + CC(=O)[O-].CCn1cc[n+](C)c1, the activity coefficient ([1]; 313 K, Chromatography) was 86.4 and 90.5, the activity coefficient [1, 16] was 86.5 ± 8.7 and the activity coefficient ([1]; 333 K, Chromatography) was 82.4 and 80.7. For the same molecule, the activity coefficient [1, 8] was 80 ± 8, the activity coefficient ([1]; 353 K, Chromatography) was 65.9 and 71.3 and the activity coefficient [1, 9] was 70.6 ± 7.1. For the same molecule, the activity coefficient ([1]; 373 K, Chromatography) was 66.1 and 72.7, the activity coefficient ([1]; 393 K, Chromatography) was 58.8 and 55.3 and the activity coefficient ([1]; 413 K, Chromatography) was 91.2 and 66.5.

`C[N+](=O)[O-]` [nitromethane] + CC(=O)[O-].CCn1cc[n+](C)c1 gave an activity coefficient [1, 5] of 0.44 ± 0.04, an activity coefficient [1, 6] of 0.46 ± 0.05 and an activity coefficient [1, 7] of 0.46 ± 0.05.

`CCCO` [propan-1-ol] + CC(=O)[O-].CCn1cc[n+](C)c1 showed an activity coefficient [1, 3] of 0.06 ± 0.01, an activity coefficient [1, 4] of 0.07 ± 0.01 and an activity coefficient [1, 5] of 0.09 ± 0.01. It also gave an activity coefficient [1, 6] of 0.1 ± 0.01, an activity coefficient [1, 7] of 0.11 ± 0.01 and an activity coefficient [1, 14] of 0.13 ± 0.01.

`CC(C)O` [propan-2-ol] + CC(=O)[O-].CCn1cc[n+](C)c1 showed an activity coefficient [1, 3] of 0.08 ± 0.01, an activity coefficient [1, 4] of 0.11 ± 0.01 and an activity coefficient [1, 5] of 0.13 ± 0.01. The activity coefficient [1, 6] was 0.15 ± 0.02, the activity coefficient [1, 7] was 0.16 ± 0.02 and the activity coefficient [1, 14] was 0.19 ± 0.02.

In the case of `C1CCOC1` [tetrahydrofuran] + CC(=O)[O-].CCn1cc[n+](C)c1, the activity coefficient [1, 16] is reported as 3.22 ± 0.32, the activity coefficient ([1]; 333 K, Chromatography) is reported as 3.91 and 3.36 and the activity coefficient [1, 8] is reported as 3.49 ± 0.35. The activity coefficient ([1]; 353 K, Chromatography) was 3.92 and 3.37, the activity coefficient [1, 9] was 3.63 ± 0.36 and the activity coefficient ([1]; 373 K, Chromatography) was 3.68 and 3.5. The activity coefficient [1, 10] was 3.67 ± 0.37, the activity coefficient [1, 15] was 3.94 ± 0.4 and the activity coefficient ([1]; 393 K, Chromatography) was 3.88 and 3.35. The activity coefficient [1, 11] was 4.02 ± 0.4, the activity coefficient ([1]; 403 K, Chromatography) was 4.02 and 3.55 and the activity coefficient [1, 12] was 4 ± 0.4. For the same molecule, the activity coefficient ([1]; 413 K, Chromatography) was 4.13 and 3.9.

`Cc1ccccc1` [toluene] + CC(=O)[O-].CCn1cc[n+](C)c1 showed an activity coefficient [1, 16] of 5.01 ± 0.5, an activity coefficient [1, 8] of 5.41 ± 0.54 and an activity coefficient [1, 9] of 5.76 ± 0.58. For the same molecule, the activity coefficient ([1]; 363 K, Chromatography) was 6.07 and 6.21, the activity coefficient ([1]; 363 K, open tubular wall-coated column chromatography) was 5.81 ± 0.58 and the activity coefficient ([1]; 373 K, Chromatography) was 6.08 and 5.92. The activity coefficient [1, 10] was 5.88 ± 0.59, the activity coefficient ([1]; 383 K, Chromatography) was 6.12 and 6.03 and the activity coefficient [1, 15] was 6.03 ± 0.6. The activity coefficient ([1]; 393 K, Chromatography) was 6.23 and 5.87, the activity coefficient [1, 11] was 6.13 ± 0.61 and the activity coefficient ([1]; 403 K, Chromatography) was 6.28 and 6.04. For the same molecule, the activity coefficient [1, 12] was 6.47 ± 0.65, the activity coefficient ([1]; 413 K, Chromatography) was 7.11 and 6.37 and the activity coefficient [1, 13] was 6.55 ± 0.66.

From the NIST ThermoML archive (doi:10.1016/j.jct.2011.11.005)
